“Also recorded” adds a separate entry of the source.
Biological target: tRNA guanine transglycosylase (TGT) (Escherichia coli, UniProt P0A847)
Assay: TGT labeling of DNA/RNA hairpin oligos with PreQ1 probes, urea PAGE gel shift
Assay type: biochemical, E. coli
Details: for labeling of the representative DNA hairpin substrate by functional PreQ1 probes: urea PAGE gel shift assays; for labeled product: 17 nucleotide DNA hairpins derived from cognate tRNA anticodon loops; for turn over by TGT: extended stem DNA analog of ECYA1 with minimal recognition element mutations, denaturing urea PAGE shift and intensity
[1] = urea PAGE gel shift and intensity

Sequence of tRNA guanine transglycosylase (TGT) (P0A847 whole entry): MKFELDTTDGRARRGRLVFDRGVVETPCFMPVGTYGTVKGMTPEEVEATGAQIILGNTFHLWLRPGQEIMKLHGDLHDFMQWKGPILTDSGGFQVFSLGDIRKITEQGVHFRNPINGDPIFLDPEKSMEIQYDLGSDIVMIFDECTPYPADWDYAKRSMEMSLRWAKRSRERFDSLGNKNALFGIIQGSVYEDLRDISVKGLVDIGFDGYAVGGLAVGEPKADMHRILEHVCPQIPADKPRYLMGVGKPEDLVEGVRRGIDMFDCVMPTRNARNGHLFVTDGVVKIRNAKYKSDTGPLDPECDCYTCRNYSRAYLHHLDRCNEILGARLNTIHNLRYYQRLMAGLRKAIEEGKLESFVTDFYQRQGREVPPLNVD

## Nc1nc2[nH]cc(CNCCCCCCNC(=O)CCCCC3SCC4NC(=O)NC43)c2c(=O)[nH]1 (stereo not shown) [PreQ1-biotin]
  labeling of the representative DNA hairpin substrate by functional PreQ1 probes: Quantitative labeling

## Alexa Fluor 647
  labeling of the representative DNA hairpin substrate by functional PreQ1 probes: Quantitative labeling

## CCTGCCTGTCACGCAGG
[1]
  labeled product: ~40%

## CTGGACTGTCACTCCAG [His(stem)-Asp(loop)]
Composite hairpins with swapped stems and loops, urea PAGE gel shift and intensity
  labeling efficiency: over 50%

## CTGGATTGTCCTTCCAG [SEQ ID NO:21]
LCMS analysis of PreQ1-biotin labeled sequence
  labeling with PreQ1-biotin confirmed by LCMS: efficient labeling
PreQ1-biotin probe, urea PAGE gel shift, listed as TAG2 DNA hairpin
  labeling of hairpin or loop sequence appended to longer ssDNA: can be modified internally; also recorded: can be modified at either end of a DNA sequence of interest

## CTGGATTGTGATTCCAG
[1]
  labeled product: ~40%

## GCAGACTGTAAATCTGC [tyrosine based counterpart]
[1]
  labeled product: ~-5%

## GGGAGCAGACTGTAAATCTGCTCCC [dTdGdT]
PreQ1-biotin probe
  turn over by TGT: no appreciable turn over

## GGGAGCAGACTGUAAATCTGCTCCC [dTdGdU]
PreQ1-biotin probe
  turn over by TGT: comparable turn over to the wildtype RNA substrate

## GGGAGCAGACUGTAAATCTGCTCCC [dUdGdT]
PreQ1-biotin probe
  turn over by TGT: no appreciable turn over

## GGGAGCAGACUGUAAATCTGCTCCC [dUdGdU]
PreQ1-biotin probe
  turn over by TGT: comparable turn over to the wildtype RNA substrate

## TAMRA
  labeling of the representative DNA hairpin substrate by functional PreQ1 probes: Quantitative labeling
